Experimental data from US12264142B2, “Heterocyclic compounds” (FLORATEK PHARMA SA, priority 2019, dated 2025).

Experiments:
C. elegans = experiment: Life span assay on Automated Lifespan Machine (SND302, SND303); type: in vivo; conditions: for Mean lifespan: area under the survival curve; for Age in days at 25% mortality / Age in days at 50% mortality / Age in days at 75% mortality / Age in days at 90% mortality / Age in days at 100% mortality: SND302, SND303 25 μM, Uro A, Resveratrol 50 μM; for Effect on lifespan: in words, compared to control
Procedure: An additional life span assay using an adapted standard protocol employed and published by the C. elegans Intervention Testing Program, or CITP was employed to assess the activity of SND302 and SND303. A positive and a negative control were included in the assay. In a preliminary experiment the optimal conditions for the life span analysis was determined and the stress level induced by the compounds as well as toxicity were measured.
For the life span assay over 300 worms per conditions were used and the study was conducted by InVivoBiosystems (USA) using an Automated Lifespan Machine (ALM) with proprietary modifications to improve temperature stability and image acquisition.
To prevent chemical modification or metabolism of the test article by the food bacteria, worms were fed on a lawn of UV-killed bacteria (UV-i bacteria). An overnight culture of E. coli strain WP-2 was pelleted, washed, filtered, and irradiated. A suspension of UV-i bacteria was spotted on NGM agar containing Streptomycin to inhibit growth of contaminating bacteria. The quantity and distribution of food bacteria was calibrated to ensure adequate access to food for the duration of assay while maintaining visibility of the worms.
Test article was delivered to worms by a method compatible with and previously validated on the Automated Lifespan Machine and used by the CIT [Lucanic, et. al. Impact of genetic background and experimental reproducibility on identifying chemical compounds with robust longevity effects. Nature Communications 8 (2017)]. A 200× stock solution was freshly prepared in DMSO immediately before application. 40 μl of DMSO stock (0.5% plate volume) was applied to the plate to coat the food bacteria and then chased immediately with 160 μl water to uniformly distribute a fine precipitate across the surface of the plate. This functioned to provide reservoirs of compound in food, agar, and agar surface.
The ALM used by InVivoBiosystems is based on the Caenorhabditis elegans lifespan machine published by Stroustrup, N. et al. The Caenorhabditis elegans Lifespan Machine. N at Methods 10, 665-670 (2013), with proprietary modifications to improve temperature stability and image acquisition. The scanner unit consists of a modified EPSON V850 and images are processed and analyzed using the ALM software 7. The machine time-of-death calls are trained and validated using the “storyboarding” feature of the ALM software.
The lifespan assay was designed and performed according to published and validated methods, Amrit, F. R. G., Ratnappan, R., Keith, S. A. & Ghazi, A. The C. elegans lifespan assay toolkit. Methods 68, 465-475 (2014); Lucanic, et. al. Manual Lifespan Assay Standard Operating Procedure. Caenorhabditis Intervention Testing Program https://figshare.com/articles/7_CITP_SOP_Manual_Lifespan_Assay/9738197/1. using a modified version of the Automated Lifespan Machine. Worms were age synchronized by bleaching and eggs were plated directly onto NGM agar seeded with UV-I bacteria (Day 1, hatch). On Day 3, when the worms had reached the late L4 stage, they were transferred to dishes containing 100 μM 5-Fluorodeoxyuridine (FUdR) to suppress progeny. On day 5, the worms were washed off the dishes and 30-50 worms were plated on each scanner dish. Plates were immobilized inverted on the bed of an Automated Lifespan Machine which scanned two images per hour of the plates continuously for the next 40 days.
Time of death calls exported from the ALM software were analyzed and plotted using the Lifelines software package developed by Davidson-Pilon, (2019). lifelines: survival analysis in Python. Journal of Open Source Software, 4(40), 1317.

[1] = test system: C. elegans gene expression; experiment: Whole transcriptome analysis (RNA-Seq) of treated worms; type: in vivo
Procedure: To determine the mode of action for SND302 and SND303 the gene transcription in young and aged adults was analyzed by RNA-Seq (whole transcription analysis). For each condition, >300 worms were treated in parallel with the lifespan assay and maintained under identical conditions.
Differential gene expression was performed with EdgeR using […] likelihood ratio tests based on fitting linear models. The likelihood ratios were used to determine the p-values which were subsequently corrected for using the BH false discovery rate (fdr) method. Eventually, differential expressed genes were defined as genes with fdr-corrected p-value of 0.05 or lower, as well as a change in expression of at least 2-fold in a given between-group comparison. Compounds SND302 and SND303 were compared against Urolithin and Vehicle control. […] In general the transcriptomic data corroborates a differential effect for SND303 when compared to SND302 (FIGS. 1-4).
Worms for RNA-Seq were split from the same synchronized pool of worms for the lifespan with each of the three replicates being maintained and treated in parallel. More than 150 worms per replicate were harvested, cleaned by filtration, and frozen at −80° in Trizol. To extract RNA, samples were thawed, vigorously vortexed, and processed using the Direct-zol RNA Miniprep Kit (Zymo Research). All samples exceeded our threshold for RNA quantity and quality. RNA samples were submitted to Novogene Co. Ltd and subjected to more stringent QC, being tested on a Qubit for concentration and run on an agarose gel and on the Agilent […] assess RNA quality and integrity. […] The total RNA was then enriched for poly-mRNA using oligo(dT) paramagnetic beads. DNA libraries were then constructed from this input mRNA using the NEBNext Ultra™ II RNA Library Prep Kit.
These libraries were then further tested by the Qubit for concentration and the Agilent 2100 for library size distribution and quality. In order to properly pool the libraries and load them onto sequencing lanes to ensure the correct number of reads per sample, an even more precise quantification of the library was done via qPCR, and the samples were loaded onto the NovaSeq 6000 platform for a paired-end sequencing run of 150 bp for each end (PE150). The loading concentrations were designed to obtain at least 6.0 Gb (which is the number of billion bases of raw data, determined by the number of reads multiplied by the length of each read). A mean of 7.4 Gb (median 7.3 Gb) raw sequencing data was obtained across all samples, with a minimum of 6.3 Gb and a maximum of 8.5 Gb raw data. Sequencing run data quality control was performed both by Novogene and by an in-house analysis. The raw data set was analyzed for parameters such as the distribution of base quality along the length of the sequencing read, the distribution of error rate along the length of the sequencing read. Reads containing adapter sequences, with N>10% (where N means “base cannot be determined”) and with a low quality (Qscore<=5) for 50% or more of its total bases were removed.

Structure (SMILES) | Median lifespan (C. elegans; 25 μM) | Mean lifespan (C. elegans; 25 μM) | Age in days at 25% mortality (C. elegans) | Age in days at 50% mortality (C. elegans) | Age in days at 75% mortality (C. elegans) | Age in days at 90% mortality (C. elegans) | Age in days at 100% mortality (C. elegans) | Effect on lifespan (C. elegans) | Significant differentially-expressed genes ([1]; Day 3, compared to the controls (Vehicle and Urolithin A), 25 μM) | Expression of gene C50F7.5 ([1]; Day 10) | Most significant differentially-expressed genes ([1]; Day 10, compared to vehicle) | Significant differentially-expressed genes ([1]; Day 10, compared with the UroA control) | Median lifespan (C. elegans; 50 μM) | Mean lifespan (C. elegans; 50 μM) | Differentially-expressed genes ([1]; Urolithin A compared with the vehicle control)
CC(C)NC(=O)Oc1ccc2c(c1)oc(=O)c1cc(OC(=O)NC(C)C)ccc12 [SND303] | 29.0 days | 27.6 days | 25 days | 29.0 days | 31.8 days | 33.9 days | 39.9 days | clear and statistically significant lifespan extension | 2-3 genes | significantly upregulated | 7 genes | 3 genes | – | – | –
O=c1oc2cc(O)ccc2c2ccc(O)cc12 [Urolithin A, reference compound] | – | – | 23.8 days | 27.8 days | 30.2 days | 32.3 days | 37.7 days | did not produce a significant change in lifespan | – | – | – | – | 27.8 days | 27.0 days | no differentially-expressed genes
